pEC50: −log10 of the molar value. Read-outs that look alike come from different tables or passages of the source.
Legend:
LXRα LBD (GST) = molecular target: T1, LXRα LBD (GST) (Homo sapiens, UniProt Q13133); experiment: Time-resolved LXR FRET assay (LanthaScreen TR-FRET LXRα Coactivator Assay Kit); type: biochemical; settings: for TR-FRET activity on LXRα, in words: statement made for both isoforms
T1 construct: 5 nM LXRα LBD (GST); 10 nM LXRβ LBD (GST); purchased ThermoFisher Scientific PV4655
T1 sequence (Q13133 209-447 limits assumed): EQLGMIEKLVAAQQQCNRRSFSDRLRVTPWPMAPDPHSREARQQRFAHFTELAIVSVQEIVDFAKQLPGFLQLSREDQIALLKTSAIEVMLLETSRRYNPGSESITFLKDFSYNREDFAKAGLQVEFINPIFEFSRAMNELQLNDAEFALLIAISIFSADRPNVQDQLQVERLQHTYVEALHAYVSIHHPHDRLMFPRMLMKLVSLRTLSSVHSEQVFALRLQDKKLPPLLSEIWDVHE
Procedure: (§1) The biochemical TR-FRET assays were performed using the LanthaScreen TR-FRET LXRα Coactivator Assay Kit, goat (ThermoFisher Scientific, PV4655), and the LanthaScreen TR-FRET LXRβ assay kit, goat (ThermoFisher Scientific, PV4658), according to the manufacturer’s instructions using the following concentrations: 5 nM LXRα LBD (GST); 10 nM LXRβ LBD (GST); 500 nM fluorescein-TRAP220/DRIP-2; 200 nM fluorescein-D22; 10 nM Tb anti-GST antibody. The TR-FRET signals were measured after 6 h using a TECAN SPARK multimode microplate reader with the following settings: first excitation wavelength: 360 nm (bandwidth 35 nm), first emission wavelength: 485 nm (bandwidth 20 nm); second excitation wavelength: 360 nm (bandwidth 35 nm), second emission wavelength: 535 nm (bandwidth 25 nm); integration time: 200 μs; lag time: 100 μs; settle time: 0 ms.

LXRβ LBD (GST) = molecular target: T2, LXRβ LBD (GST) (Homo sapiens, UniProt P55055); experiment: Time-resolved LXR FRET assay (LanthaScreen TR-FRET LXRβ assay kit); type: biochemical; settings: for TR-FRET activity on LXRβ, in words: statement made for both isoforms
T2 construct: 5 nM LXRα LBD (GST); 10 nM LXRβ LBD (GST); purchased ThermoFisher Scientific PV4658
T2 sequence (P55055 222-460 limits assumed): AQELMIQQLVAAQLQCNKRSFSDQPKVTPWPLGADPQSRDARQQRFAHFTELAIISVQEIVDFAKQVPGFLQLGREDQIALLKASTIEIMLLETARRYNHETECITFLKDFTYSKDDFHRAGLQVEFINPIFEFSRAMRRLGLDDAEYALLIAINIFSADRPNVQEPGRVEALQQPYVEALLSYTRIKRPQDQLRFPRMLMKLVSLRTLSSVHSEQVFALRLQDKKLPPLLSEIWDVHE
Procedure: as §1

[1] = 5 nM LXRα LBD (GST), read after 6 h, R^2 of fit given, read-out: TR-FRET activity (EC50) LXRα
[2] = 10 nM LXRβ LBD (GST), read after 6 h, R^2 of fit given, read-out: TR-FRET activity (EC50) LXRβ
[3] = supplement list of compounds, LXRα, unit inferred, read-out: FRET activity a
[4] = supplement list of compounds, (LXRβ), unit inferred, read-out: FRET activity b

| pEC50 (LXRα LBD (GST); [1]) | TR-FRET activity on LXRα, in words (LXRα LBD (GST)) | pEC50 (LXRβ LBD (GST); [2]) | TR-FRET activity on LXRβ, in words (LXRβ LBD (GST)) | pEC50 (LXRα LBD (GST); [3]) | pEC50 (LXRβ LBD (GST); [4]) | Structure (SMILES) |
| --- | --- | --- | --- | --- | --- | --- |
| < 5.52 | completely abolished activation | < 5.52 | completely abolished activation |  |  | NC(=O)c1ccc(NC2=C(c3ccccc3)C(=O)N(Cc3ccccc3)C2=O)cc1 [Compound 36, 4-((1-Benzyl-2,5-dioxo-4-phenyl-2,5-dihydro-1H-pyrrol-3-yl)amino)benzamide] |
|  |  |  |  | 7.13 | 6.65 | O=C(c1ccc(NC2=C(c3ccccc3)C(=O)N(Cc3ccccc3)C2=O)cc1)N1CCCCC1 [Compound 50, 1-Benzyl-3-phenyl-4-((4-(piperidine-1-carbonyl)phenyl)amino)-1H-pyrrole-2,5-dione] |
| 5.94 |  | 5.93 |  |  |  | O=C1C(Nc2ccc(Cl)cc2)=C(c2ccccc2)C(=O)N1Cc1ccccc1 [Compound 30, 1-Benzyl-3-((4-chlorophenyl)amino)-4-phenyl-1H-pyrrole-2,5-dione] |
| < 5.52 | no activity | < 5.52 | no activity |  |  | O=C1NC(=O)C(c2ccccc2)=C1Nc1ccc(N2CCCCC2)cc1 [Compound 52, 3-Phenyl-4-((4-(piperidin-1-yl)phenyl)amino)-1H-pyrrole-2,5-dione] |
|  |  |  |  | 6.10 | 6.82 | CN1CCC(Nc2ccc(NC3=C(c4ccccc4)C(=O)N(Cc4ccccc4)C3=O)cc2)CC1 [Compound 48, 1-Benzyl-3-((4-((1-methylpiperidin-4-yl)amino)phenyl)amino)-4-phenyl-1H-pyrrole-2,5-dione] |
|  | no relevant activity |  | no relevant activity | 6.42 | 6.18 | CN1CCN(c2ccc(NC3=C(c4ccccc4)C(=O)N(Cc4ccccc4)C3=O)cc2)CC1 [Compound 44, 1-Benzyl-3-((4-(4-methylpiperazin-1-yl)phenyl)amino)-4-phenyl-1H-pyrrole-2,5-dione] |
| 6.47 |  | 6.79 |  |  |  | COc1ccc(NC2=C(c3ccccc3)C(=O)N(CC3CC3)C2=O)cc1 [Compound 23, 1-(Cyclopropylmethyl)-3-((4-methoxyphenyl)amino)-4-phenyl-1H-pyrrole-2,5-dione] |
| 6.51 |  | 6.58 |  |  |  | O=C1C(Nc2ccccc2)=C(c2ccccc2)C(=O)N1Cc1ccccc1 [Compound 29, 1-Benzyl-3-phenyl-4-(phenylamino)-1H-pyrrole-2,5-dione] |
| < 5.52 | completely lost potency | < 5.52 | completely lost potency |  |  | COc1ccc(NC2=C(c3ccccc3)C(=O)N(Cc3ccc(C(F)(F)F)cc3)C2=O)cc1 [Compound 18, 3-((4-Methoxyphenyl)amino)-4-phenyl-1-(4-(trifluoromethyl)benzyl)-1H-pyrrole-2,5-dione] |
| 6.24 |  | 6.48 |  |  |  | COc1ccc(NC2=C(c3ccccc3)C(=O)N(Cc3ccc(C)cc3)C2=O)cc1 [Compound 17, 3-((4-Methoxyphenyl)amino)-1-(4-methylbenzyl)-4-phenyl-1H-pyrrole-2,5-dione] |
| 6.29 |  | 6.23 |  |  |  | COc1ccc(CN2C(=O)C(Nc3ccc(OC)cc3)=C(c3ccccc3)C2=O)cc1 [Compound 19, 1-(4-Methoxybenzyl)-3-((4-methoxyphenyl)amino)-4-phenyl-1H-pyrrole-2,5-dione] |
| 7.15 |  | 7.04 |  |  |  | CN(C)c1ccc(NC2=C(c3ccccc3)C(=O)N(Cc3ccccc3)C2=O)cc1 [Compound 35, 1-Benzyl-3-((4-(dimethylamino)phenyl)amino)-4-phenyl-1H-pyrrole-2,5-dione] |
| 7.46 |  | 6.97 |  |  |  | O=C1C(Nc2ccc(N3CCOCC3)cc2)=C(c2ccccc2)C(=O)N1Cc1ccccc1 [Compound 41, 1-Benzyl-3-((4-morpholinophenyl)amino)-4-phenyl-1H-pyrrole-2,5-dione] |
| < 5.52 | completely lost activity | < 5.52 | completely lost activity |  |  | COc1ccc(OC2=C(c3ccccc3)C(=O)N(Cc3ccccc3)C2=O)cc1 [Compound 26, 1-Benzyl-3-(4-methoxyphenoxy)-4-phenyl-1H-pyrrole-2,5-dione] |
| 6.41 |  | 6.69 |  |  |  | O=C1C(Nc2ccc(O)cc2)=C(c2ccccc2)C(=O)N1Cc1ccccc1 [Compound 33, 1-Benzyl-3-((4-hydroxyphenyl)amino)-4-phenyl-1H-pyrrole-2,5-dione] |
| 6.56 |  | 6.88 |  |  |  | O=C1C(Nc2ccc(CO)cc2)=C(c2ccccc2)C(=O)N1Cc1ccccc1 [Compound 34, 1-Benzyl-3-((4-(hydroxymethyl)phenyl)amino)-4-phenyl-1H-pyrrole-2,5-dione] |

More lines, now with the values behind:

| Structure (SMILES) | pEC50 (LXRα LBD (GST); [1]) | TR-FRET activity on LXRα, in words (LXRα LBD (GST)) | pEC50 (LXRβ LBD (GST); [2]) | TR-FRET activity on LXRβ, in words (LXRβ LBD (GST)) | pEC50 (LXRα LBD (GST); [3]) | pEC50 (LXRβ LBD (GST); [4]) |
| --- | --- | --- | --- | --- | --- | --- |
| COc1ccc(CNC2=C(c3ccccc3)C(=O)N(Cc3ccccc3)C2=O)cc1 [Compound 28, 1-Benzyl-3-((4-methoxybenzyl)amino)-4-phenyl-1H-pyrrole-2,5-dione] | < 5.52 | no activity | < 5.52 | no activity |  |  |
| COc1ccc(NC2=C(c3ccccc3)C(=O)N(Cc3ccc(C(C)(C)C)cc3)C2=O)cc1 [Compound 20, 1-(4-(tert-Butyl)benzyl)-3-((4-methoxyphenyl)amino)-4-phenyl-1H-pyrrole-2,5-dione] | < 5.52 |  | < 5.52 |  |  |  |
| O=C1C(Nc2ccc(NC3CCNCC3)cc2)=C(c2ccccc2)C(=O)N1Cc1ccccc1 [Compound 47, 1-Benzyl-3-phenyl-4-((4-(piperidin-4-ylamino)phenyl)amino)-1H-pyrrole-2,5-dione] |  |  |  |  | 6.21 |  |
| COc1ccc(NC2=C(c3ccccc3)C(=O)N(CC3CCCCC3)C2=O)cc1 [Compound 22, 1-(Cyclohexylmethyl)-3-((4-methoxyphenyl)amino)-4-phenyl-1H-pyrrole-2,5-dione] | 5.71 |  | 5.59 |  |  |  |
| CC(C)(C)OC(=O)NC1CCN(c2ccc(NC3=C(c4ccccc4)C(=O)N(Cc4ccccc4)C3=O)cc2)CC1 [Compound 45, tert-Butyl-(1-(4-((1-benzyl-2,5-dioxo-4-phenyl-2,5-dihydro-1H-pyrrol-3-yl)amino)phenyl)piperidin-4-yl)carbamate] |  | abolished all activity |  | abolished all activity | < 5.52 | < 5.52 |
| O=C1C(Nc2ccc3c(c2)OCO3)=C(c2ccccc2)C(=O)N1Cc1ccccc1 [Compound 38, 3-(Benzo[d][1,3]dioxol-5-ylamino)-1-benzyl-4-phenyl-1H-pyrrole-2,5-dione] | 7.38 |  | 7.35 |  |  |  |
| O=C1C(Nc2ccc(F)cc2)=C(c2ccccc2)C(=O)N1Cc1ccccc1 [Compound 31, 1-Benzyl-3-((4-fluorophenyl)amino)-4-phenyl-1H-pyrrole-2,5-dione] | 6.47 |  | 6.26 |  |  |  |
| O=C1C(Nc2ccc(N3CCSCC3)cc2)=C(c2ccccc2)C(=O)N1Cc1ccccc1 [Compound 42, 1-Benzyl-3-phenyl-4-((4-thiomorpholinophenyl)amino)-1H-pyrrole-2,5-dione] | 7.30 |  | 6.91 |  |  |  |
| COc1ccc(NC2=C(c3ccccc3)C(=O)N(Cc3ccc(F)cc3)C2=O)cc1 [Compound 16, 1-(4-Fluorobenzyl)-3-((4-methoxyphenyl)amino)-4-phenyl-1H-pyrrole-2,5-dione] | 6.11 |  | 6.23 |  |  |  |
| O=C1CCN(c2ccc(NC3=C(c4ccccc4)C(=O)N(Cc4ccccc4)C3=O)cc2)CC1 [Compound 49, 1-Benzyl-3-((4-(4-oxopiperidin-1-yl)phenyl)amino)-4-phenyl-1H-pyrrole-2,5-dione] |  |  |  |  | 6.99 | 6.89 |
| O=C1Cc2cc(NC3=C(c4ccccc4)C(=O)N(Cc4ccccc4)C3=O)ccc2N1 [Compound 37, 1-Benzyl-3-((2-oxoindolin-5-yl)amino)-4-phenyl-1H-pyrrole-2,5-dione] | 6.86 |  | 7.08 |  |  |  |
| COc1cc(NC2=C(c3ccccc3)C(=O)N(Cc3ccccc3)C2=O)cc(OC)c1 [Compound 39, 1-Benzyl-3-((3,5-dimethoxyphenyl)amino)-4-phenyl-1H-pyrrole-2,5-dione] | 6.13 |  | 5.88 |  |  |  |

From article PMC11997999, “Uncovering α-Selectivity for Liver X Receptor Agonists for Lipotoxic Cancer Therapies” (Journal of Medicinal Chemistry, 2025)
